Assay results taken from PubChem BioAssay (NCI).
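Dose response: 5 concentrations. Exposure: 48 h. Format: 96-well plates. Endpoint: linear interpolation; highest concentration if not reached. GI50 is the concentration that inhibits growth by half. TGI is the concentration that stops growth completely.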

What was measured:
Test in all cases: DTP human tumour cell line panel, 48 h
[1] = test system: MOLT-4 leukemia
[2] = test system: SR leukemia
[3] = test system: SK-MEL-28 melanoma
[4] = test system: CAKI-1 renal
[5] = test system: A498 renal
[6] = test system: K-562 leukemia
[7] = test system: OVCAR-8 ovarian
[8] = test system: HL-60(TB) leukemia
[9] = test system: NCI-H460 lung
[10] = test system: IGROV1 ovarian
[11] = test system: CCRF-CEM leukemia
[12] = test system: UACC-62 melanoma
[13] = test system: HOP-62 NSCLC
[14] = test system: NCI-H226 lung
[15] = test system: ACHN renal
[16] = test system: DU-145 prostate
[17] = test system: SF-539 CNS
[18] = test system: HCT-15 colon
[19] = test system: BT-549 breast
[20] = test system: HT29 colon
[21] = test system: MDA-MB-435
[22] = test system: RXF 393 renal
[23] = test system: 786-0 renal
[24] = test system: MDA-MB-231 breast
[25] = test system: SN12C renal
[26] = test system: SW-620 colon
[27] = test system: SF-295 CNS
[28] = test system: UO-31 renal
[29] = test system: SK-MEL-5 melanoma
[30] = test system: SF-268 CNS
[31] = test system: HOP-92 NSCLC
[32] = test system: OVCAR-4 ovarian
[33] = test system: PC-3 prostate
[34] = test system: NCI-H522 lung
[35] = test system: SNB-19 CNS
[36] = test system: SNB-75 CNS
[37] = test system: KM12 colon
[38] = test system: TK-10 renal
[39] = test system: SK-OV-3 ovarian
[40] = test system: MALME-3M melanoma
[41] = test system: RPMI-8226 leukemia
[42] = test system: T-47D breast
[43] = test system: NCI-H23 lung
[44] = test system: M14 melanoma
[45] = test system: MCF7 breast
[46] = test system: HCC-2998 colon
[47] = test system: OVCAR-5 ovarian
[48] = test system: UACC-257 melanoma
[49] = test system: EKVX NSCLC
[50] = test system: OVCAR-3 ovarian
[51] = test system: SK-MEL-2 melanoma

With COc1cc2nc(N3CCCC3)nc(NCCc3ccccc3)c2cc1OC as the molecule, how does the GI50 [1] read?
Its GI50 is 2430 nM.

What about the TGI [1] of the same molecule?
Its TGI is 7.69 µM.

And the GI50 [2]?
The GI50 was 653 nM.

And the TGI [2]?
Its TGI is 5.74 µM.

What about the GI50 [3] of the same molecule?
The GI50 was 1660 nM.

And the TGI [3]?
The TGI was 3.03 µM.

And the GI50 [4]?
The GI50 was 1660 nM.

And the TGI [4]?
The TGI was 3.19 µM.

And the GI50 [5]?
Its GI50 is 1640 nM.

And the TGI [5]?
Its TGI is 3.5 µM.

And the GI50 [6]?
Its GI50 is 1810 nM.

And the TGI [6]?
Its TGI is over 100 µM.

And the GI50 [7]?
The GI50 was 2140 nM.

What about the TGI [7] of the same molecule?
Its TGI is 6.05 µM.

And the GI50 [8]?
The GI50 was 1850 nM.

What about the TGI [8] of the same molecule?
Its TGI is 4.25 µM.

What about the GI50 [9] of the same molecule?
Its GI50 is 1860 nM.

And the TGI [9]?
Its TGI is 3.54 µM.

And the GI50 [10]?
Its GI50 is 1510 nM.

What about the TGI [10] of the same molecule?
Its TGI is 2950 nM.

And the GI50 [11]?
Its GI50 is 1440 nM.

And the TGI [11]?
The TGI was 10.6 µM.

And the GI50 [12]?
The GI50 was 1650 nM.

What about the TGI [12] of the same molecule?
The TGI was 3.06 µM.

What about the GI50 [13] of the same molecule?
Its GI50 is 1930 nM.

What about the TGI [13] of the same molecule?
Its TGI is 3.86 µM.

And the GI50 [14]?
The GI50 was 11.4 µM.

What about the TGI [14] of the same molecule?
Its TGI is 34 µM.

And the GI50 [15]?
The GI50 was 1670 nM.

What about the TGI [15] of the same molecule?
Its TGI is 3.04 µM.

What about the GI50 [16] of the same molecule?
The GI50 was 2110 nM.

And the TGI [16]?
Its TGI is 5.11 µM.

And the GI50 [17]?
Its GI50 is 1780 nM.

And the TGI [17]?
The TGI was 3.21 µM.

What about the GI50 [18] of the same molecule?
The GI50 was 1670 nM.

And the TGI [18]?
Its TGI is 3.26 µM.

And the GI50 [19]?
The GI50 was 1750 nM.

What about the TGI [19] of the same molecule?
Its TGI is 3.51 µM.

What about the GI50 [20] of the same molecule?
The GI50 was 1810 nM.

And the TGI [20]?
The TGI was 4.19 µM.

What about the GI50 [21] of the same molecule?
The GI50 was 1740 nM.

What about the TGI [21] of the same molecule?
Its TGI is 3.25 µM.

And the GI50 [22]?
The GI50 was 1280 nM.

What about the TGI [22] of the same molecule?
The TGI was 2760 nM.

What about the GI50 [23] of the same molecule?
Its GI50 is 1710 nM.

What about the TGI [23] of the same molecule?
Its TGI is 3.21 µM.

What about the GI50 [24] of the same molecule?
The GI50 was 1790 nM.

And the TGI [24]?
Its TGI is 3.35 µM.

What about the GI50 [25] of the same molecule?
Its GI50 is 1870 nM.

And the TGI [25]?
The TGI was 3.79 µM.

And the GI50 [26]?
The GI50 was 1380 nM.

And the TGI [26]?
The TGI was 3.07 µM.

And the GI50 [27]?
The GI50 was 1800 nM.

And the TGI [27]?
The TGI was 3.43 µM.

What about the GI50 [28] of the same molecule?
Its GI50 is 1290 nM.

What about the TGI [28] of the same molecule?
The TGI was 2690 nM.

What about the GI50 [29] of the same molecule?
Its GI50 is 1700 nM.

And the TGI [29]?
The TGI was 3.15 µM.

What about the GI50 [30] of the same molecule?
Its GI50 is 1970 nM.

What about the TGI [30] of the same molecule?
The TGI was 3.95 µM.

What about the GI50 [31] of the same molecule?
Its GI50 is 1480 nM.

What about the TGI [31] of the same molecule?
The TGI was 3.16 µM.

What about the GI50 [32] of the same molecule?
The GI50 was 1760 nM.

What about the TGI [32] of the same molecule?
The TGI was 3.71 µM.

And the GI50 [33]?
The GI50 was 1680 nM.

And the TGI [33]?
Its TGI is 3.91 µM.

And the GI50 [34]?
The GI50 was 1990 nM.

What about the TGI [34] of the same molecule?
Its TGI is 4.54 µM.

What about the GI50 [35] of the same molecule?
Its GI50 is 1740 nM.

And the TGI [35]?
Its TGI is 3.3 µM.

And the GI50 [36]?
Its GI50 is 1520 nM.

And the TGI [36]?
Its TGI is 2890 nM.

And the GI50 [37]?
Its GI50 is 1960 nM.

And the TGI [37]?
Its TGI is 3.74 µM.

What about the GI50 [38] of the same molecule?
The GI50 was 1970 nM.

And the TGI [38]?
The TGI was 3.56 µM.

What about the GI50 [39] of the same molecule?
The GI50 was 1930 nM.

What about the TGI [39] of the same molecule?
The TGI was 3.56 µM.

What about the GI50 [40] of the same molecule?
Its GI50 is 1900 nM.

What about the TGI [40] of the same molecule?
The TGI was 3.38 µM.

And the GI50 [41]?
Its GI50 is 2180 nM.

And the TGI [41]?
Its TGI is 5.75 µM.

What about the GI50 [42] of the same molecule?
The GI50 was 1940 nM.

And the TGI [42]?
Its TGI is 4.41 µM.

And the GI50 [43]?
The GI50 was 1800 nM.

What about the TGI [43] of the same molecule?
The TGI was 3.64 µM.

What about the GI50 [44] of the same molecule?
Its GI50 is 1800 nM.

What about the TGI [44] of the same molecule?
Its TGI is 3.69 µM.

And the GI50 [45]?
Its GI50 is 1170 nM.

What about the TGI [45] of the same molecule?
The TGI was 2850 nM.

And the GI50 [46]?
Its GI50 is 1960 nM.

What about the TGI [46] of the same molecule?
Its TGI is 3.64 µM.

What about the GI50 [47] of the same molecule?
Its GI50 is 1720 nM.

What about the TGI [47] of the same molecule?
Its TGI is 3.21 µM.

What about the GI50 [48] of the same molecule?
The GI50 was 1890 nM.

What about the TGI [48] of the same molecule?
Its TGI is 3.85 µM.

What about the GI50 [49] of the same molecule?
The GI50 was 1850 nM.

What about the TGI [49] of the same molecule?
Its TGI is 3.9 µM.

And the GI50 [50]?
The GI50 was 1960 nM.

And the TGI [50]?
Its TGI is 3.68 µM.

And the GI50 [51]?
Its GI50 is 2020 nM.

And the TGI [51]?
Its TGI is 3.91 µM.
